Results reported in article PMC8893300, “A Dynamic Mass Redistribution Assay for the Human Sweet Taste Receptor Uncovers G-Protein Dependent Biased Ligands” (Frontiers in Pharmacology, 2022).
Read-outs that look alike come from different tables or passages of the source. Marks after values point to notes of the source that are not given here.

Target: T1, human sweet taste receptor (hT1R2/hT1R3) coupled to Gα15 (Homo sapiens, UniProt Q7RTX0+Q8TE23)
T1 construct: expressed in transfected cells
T1 sequence (Q8TE23 20-839): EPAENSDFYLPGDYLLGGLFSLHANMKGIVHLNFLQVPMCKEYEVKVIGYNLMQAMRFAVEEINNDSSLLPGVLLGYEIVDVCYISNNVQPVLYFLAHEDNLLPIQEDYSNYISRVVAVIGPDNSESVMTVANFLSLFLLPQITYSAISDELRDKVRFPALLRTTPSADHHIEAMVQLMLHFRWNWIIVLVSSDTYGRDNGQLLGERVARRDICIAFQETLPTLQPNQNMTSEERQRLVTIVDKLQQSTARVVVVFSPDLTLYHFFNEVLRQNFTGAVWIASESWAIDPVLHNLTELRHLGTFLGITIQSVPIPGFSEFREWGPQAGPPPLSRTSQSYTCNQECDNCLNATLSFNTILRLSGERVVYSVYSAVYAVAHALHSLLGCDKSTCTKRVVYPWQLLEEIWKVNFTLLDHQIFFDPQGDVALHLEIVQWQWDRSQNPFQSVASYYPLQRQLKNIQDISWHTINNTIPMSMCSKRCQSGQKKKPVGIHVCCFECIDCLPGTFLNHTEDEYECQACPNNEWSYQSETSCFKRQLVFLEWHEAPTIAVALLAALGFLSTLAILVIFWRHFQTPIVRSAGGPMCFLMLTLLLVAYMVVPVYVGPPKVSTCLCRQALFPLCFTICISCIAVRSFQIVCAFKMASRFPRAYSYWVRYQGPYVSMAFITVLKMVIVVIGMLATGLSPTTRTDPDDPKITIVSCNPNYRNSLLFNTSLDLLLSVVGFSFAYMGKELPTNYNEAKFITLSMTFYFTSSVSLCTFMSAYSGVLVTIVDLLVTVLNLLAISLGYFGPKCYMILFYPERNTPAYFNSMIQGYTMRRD
T1 sequence (Q7RTX0 21-852): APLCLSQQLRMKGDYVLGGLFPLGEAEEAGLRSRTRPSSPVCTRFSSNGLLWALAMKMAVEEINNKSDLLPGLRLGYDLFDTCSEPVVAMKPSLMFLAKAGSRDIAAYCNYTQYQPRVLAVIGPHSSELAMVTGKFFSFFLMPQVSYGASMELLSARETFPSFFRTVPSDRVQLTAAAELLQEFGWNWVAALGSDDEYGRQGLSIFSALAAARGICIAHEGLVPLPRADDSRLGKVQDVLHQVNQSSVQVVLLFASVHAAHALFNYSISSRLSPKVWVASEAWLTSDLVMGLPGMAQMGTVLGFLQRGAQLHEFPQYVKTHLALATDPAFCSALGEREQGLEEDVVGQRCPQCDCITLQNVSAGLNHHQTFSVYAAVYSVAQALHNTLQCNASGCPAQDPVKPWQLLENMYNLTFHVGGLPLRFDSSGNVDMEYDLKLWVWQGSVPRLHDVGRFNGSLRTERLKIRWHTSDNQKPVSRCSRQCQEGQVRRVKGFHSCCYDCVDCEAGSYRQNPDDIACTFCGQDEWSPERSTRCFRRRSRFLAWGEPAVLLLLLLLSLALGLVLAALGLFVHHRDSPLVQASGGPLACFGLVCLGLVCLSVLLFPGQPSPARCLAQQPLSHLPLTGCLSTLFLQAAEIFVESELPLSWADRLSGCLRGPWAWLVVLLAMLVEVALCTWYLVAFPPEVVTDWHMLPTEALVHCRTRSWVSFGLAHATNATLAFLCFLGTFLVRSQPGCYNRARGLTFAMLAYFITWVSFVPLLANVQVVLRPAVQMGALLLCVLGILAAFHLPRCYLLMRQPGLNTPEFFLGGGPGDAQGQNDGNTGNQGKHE
Experiment: FLIPR calcium mobilization assay, R2/R3 U2OS cells transduced with Gα15 baculovirus
Assay type: cell-based
Conditions: for ΔlogR FLIPR Mean: FLIPR-Gα15, operational model, logR minus sucralose logR; for Activity in FLIPR assay Emax: Gα15, top asymptote of dose-response normalized to 1 mM sucralose; for EC50: R2/R3 U2OS cells expressing Gα15; for Bias factor: inverse log of ΔΔlogR, FLIPR-Gα15 vs DMR; for ΔΔlogR Mean: ΔlogR FLIPR-Gα15 minus ΔlogR DMR; for fold difference DMR EC50 vs FLIPR EC50 (more potent in FLIPR): DMR EC50 over FLIPR-Gα15 EC50

[1] = read-out: Activity in FLIPR assay EC50
[2] = read-out: Activity in FLIPR assay pEC50 (converted)

| SMILES | ΔlogR FLIPR Mean | Activity in FLIPR assay Emax | EC50 [1] | EC50 [2] | Bias factor | ΔΔlogR Mean | fold difference DMR EC50 vs FLIPR EC50 (more potent in FLIPR) |
| --- | --- | --- | --- | --- | --- | --- | --- |
| COC(=O)[C@H](Cc1ccccc1)NC(=O)[C@H](CC(=O)O)NCCC(C)(C)C [Neotame] | 1.65 | 116**** | 1600 nM | 1530 nM | 3.2 | 0.50 |  |
| CC(C)Oc1ccc(NC(=S)NCc2ccc[nH]2)cc1 [S819] | 3.11 | 181**** | 70 nM | 74.5 nM | 3.9 | 0.59 | about 10 times |
| CC(C)Oc1ccc(NC(=S)NCc2cccs2)cc1 [S5227] | 2.52 | 177**** | 300 nM | 335 nM | 4.8 | 0.68 | about 10 times |
